# Test results as given in BindingDB's records for doi:10.1021/jm9705519 (National Institute On Drug Abuse-Intramural Research Program, 1998).
# Biological target: Sigma non-opioid intracellular receptor 1 (Cavia porcellus) (UniProt Q60492)
# Assay: Binding affinity was evaluated using [3H]pentazocine binding to sigma-1 receptor from guinea pig brain
# Chain of Sigma non-opioid intracellular receptor 1 (Cavia porcellus) (Q60492 whole entry, looked up): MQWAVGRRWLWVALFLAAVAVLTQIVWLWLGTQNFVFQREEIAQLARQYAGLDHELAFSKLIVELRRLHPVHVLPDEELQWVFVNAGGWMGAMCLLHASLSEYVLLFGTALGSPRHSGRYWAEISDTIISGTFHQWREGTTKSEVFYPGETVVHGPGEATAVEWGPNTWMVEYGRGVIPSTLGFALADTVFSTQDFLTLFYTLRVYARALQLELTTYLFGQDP
row,Compound,IC50
1,C[C@H]1CN(CCCn2c3ccccc3c3ccccc32)C[C@H](C)N1C,0.897 µM
2,"CC1CN(CCCn2c3ccccc3c3ccccc32)CC(C)N1CCN=C=S (centres undefined) [9-{3-[4-(2-Isothiocyanato-ethyl)-3,5-dimethyl-piperazin-1-yl]-propyl}-9H-carbazole]",0.949 µM
3,"CC1CN(CCCn2c3ccccc3c3ccccc32)CC(C)N1CCCN=C=S (centres undefined) [9-{3-[4-(3-Isothiocyanato-propyl)-3,5-dimethyl-piperazin-1-yl]-propyl}-9H-carbazole]",1.83 µM
4,"CC1CN(CCCn2c3ccccc3c3ccccc32)CC(C)N1CCCCCCN=C=S (centres undefined) [9-{3-[4-(6-Isothiocyanato-hexyl)-3,5-dimethyl-piperazin-1-yl]-propyl}-9H-carbazole]",0.707 µM
